The results in this text go back to ChEMBL document CHEMBL5131409, “Synthesis and characterization of chiral 6-azaspiro[2.5]octanes as potent and selective antagonists of the M4 muscarinic acetylcholine receptor” (Bioorg Med Chem Lett, 2022).

Data set [1] has as its target T1, Muscarinic acetylcholine receptor M1 (Homo sapiens, UniProt P11229).
T1 sequence (P11229 whole entry): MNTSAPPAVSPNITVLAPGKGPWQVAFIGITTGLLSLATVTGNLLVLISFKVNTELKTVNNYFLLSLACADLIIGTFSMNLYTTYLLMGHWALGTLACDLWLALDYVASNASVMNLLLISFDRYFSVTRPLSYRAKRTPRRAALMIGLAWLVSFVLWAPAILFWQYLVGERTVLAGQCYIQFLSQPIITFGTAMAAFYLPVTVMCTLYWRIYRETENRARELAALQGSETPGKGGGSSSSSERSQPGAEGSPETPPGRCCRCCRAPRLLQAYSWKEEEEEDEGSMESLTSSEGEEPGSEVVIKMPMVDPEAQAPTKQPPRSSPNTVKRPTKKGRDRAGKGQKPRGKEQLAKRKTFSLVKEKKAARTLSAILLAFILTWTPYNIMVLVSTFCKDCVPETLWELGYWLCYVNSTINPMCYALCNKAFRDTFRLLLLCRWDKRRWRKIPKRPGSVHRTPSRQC
Nature of the data set: Inhibition of human muscarinic acetylcholine M1 receptor expressed in CHO cells co-expressing Gqi5 preincubated with compound followed by acetylcholine addition at EC80 concentration by calcium mobilization assay. Format: functional, cell-based.

Data set [2] can be described thus: Selectivity ratio of IC50 for inhibition of human muscarinic acetylcholine M2 receptor to IC50 for inhibition of human muscarinic acetylcholine M4 receptor expressed in CHO cells co-expressing Gqi5 in the presence of acetylcholine at EC80 concentration by calcium mobilization assay. Format: cell-based. For orientation: Calcium assays in cells follow changes in intracellular calcium, usually with a dye or a luminescent sensor.

A short description of data set [3]: AUC (0.25 to last) in mouse plasma at 3 mg/kg, ip. Set-up: dose 3 mg/kg, route ip. Format: ADME, organism-based.
Data set [4] in a line: Cmax in mouse plasma at 3 mg/kg, ip. It is filed as ADME, organism-based. On the set-up: dose 3 mg/kg, route ip.
For data set [5], the target named is T2, Muscarinic acetylcholine receptor M5 (Rattus norvegicus, UniProt P08911).
T2 sequence (P08911 whole entry): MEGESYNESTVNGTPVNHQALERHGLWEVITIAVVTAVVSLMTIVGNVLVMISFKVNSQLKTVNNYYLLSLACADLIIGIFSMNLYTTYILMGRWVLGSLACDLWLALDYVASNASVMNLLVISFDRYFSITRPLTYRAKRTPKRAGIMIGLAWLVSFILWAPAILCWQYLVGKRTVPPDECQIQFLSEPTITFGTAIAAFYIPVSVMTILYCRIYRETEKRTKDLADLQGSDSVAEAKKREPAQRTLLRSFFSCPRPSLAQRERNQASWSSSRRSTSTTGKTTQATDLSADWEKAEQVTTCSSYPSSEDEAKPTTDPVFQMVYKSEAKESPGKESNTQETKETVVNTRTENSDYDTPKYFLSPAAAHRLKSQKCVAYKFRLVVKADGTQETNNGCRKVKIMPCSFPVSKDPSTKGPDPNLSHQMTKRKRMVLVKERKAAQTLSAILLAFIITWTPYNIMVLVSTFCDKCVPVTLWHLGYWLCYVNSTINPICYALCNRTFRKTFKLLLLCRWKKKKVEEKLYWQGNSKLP
Description: Inhibition of rat muscarinic acetylcholine M5 receptor expressed in CHO cells co-expressing Gqi5 preincubated with compound followed by acetylcholine addition at EC80 concentration by calcium mobilization assay. It is filed as functional, cell-based.

A short description of data set [6]: Cmax in rat brain at 3 mg/kg, ip. Format: ADME, organism-based. On the set-up: dose 3 mg/kg, route ip.
Data set [7] addresses T3, Muscarinic acetylcholine receptor M4 (Homo sapiens, UniProt P08173).
T3 sequence (P08173 whole entry): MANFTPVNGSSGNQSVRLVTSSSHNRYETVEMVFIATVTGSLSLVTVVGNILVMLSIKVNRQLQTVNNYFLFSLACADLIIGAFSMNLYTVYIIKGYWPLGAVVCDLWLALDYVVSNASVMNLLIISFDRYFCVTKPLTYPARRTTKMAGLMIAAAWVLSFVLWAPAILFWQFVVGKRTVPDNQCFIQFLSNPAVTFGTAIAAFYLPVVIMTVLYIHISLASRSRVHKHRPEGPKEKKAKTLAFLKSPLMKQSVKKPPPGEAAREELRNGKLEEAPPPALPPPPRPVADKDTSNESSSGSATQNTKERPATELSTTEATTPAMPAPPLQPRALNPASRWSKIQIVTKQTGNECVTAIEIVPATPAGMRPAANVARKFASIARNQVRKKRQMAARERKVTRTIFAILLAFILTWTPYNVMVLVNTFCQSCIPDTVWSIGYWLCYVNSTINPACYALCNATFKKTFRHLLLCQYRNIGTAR
Description: Displacement of [3H]-NMS from human muscarinic acetylcholine M4 receptor expressed in CHO cell membrane by competitive binding assay. It is filed as cell membranes.

Data set [8] can be described thus: Unbound Cmax in rat plasma at 3 mg/kg, ip. Format: ADME, organism-based. The settings on record: in vivo.
Data set [9] can be described thus: Cmax in mouse brain at 3 mg/kg, ip. It is filed as ADME, organism-based. Set-up: dose 3 mg/kg, route ip.
A short description of data set [10]: Cmax in rat plasma at 3 mg/kg, ip. It is filed as ADME, organism-based. Set-up: dose 3 mg/kg, route ip.
The nature of data set [11]: Tmax in mouse brain at 3 mg/kg, ip. It is filed as ADME, organism-based.
Data set [12] concerns the target T4, Muscarinic acetylcholine receptor M4 (Homo sapiens) (UniProt P08173).
T4 sequence (whole entry): T3 sequence (P08173 whole entry)
Description: Antagonist activity at human muscarinic acetylcholine M4 receptor expressed in CHO cells co-expressing Gqi5 assessed as minimal acetylcholine response by calcium mobilization assay relative to control. It is filed as functional, cell-based. Set-up: scale not given: the % may be the effect or the level left. The conditions noted are these: filed as antagonist.

The nature of data set [13]: MRT in rat at 3 mg/kg, iv. Format: ADME, organism-based. The settings on record: in vivo.
Data set [14] is described as follows: AUC (0 to last) in rat at 3 mg/kg, iv. Set-up: time 0 - last, dose 3 mg/kg, route iv. The conditions noted are these: in vivo. Format: ADME, organism-based.
A short description of data set [15]: Intrinsic clearance in rat liver microsomes. Format: ADME, Microsome. The conditions noted are these: read-out: CLH.
Data set [16] can be described thus: Plasma clearance in rat at 3 mg/kg, iv. Format: ADME, organism-based.
Data set [17] in a line: Tmax in mouse plasma at 3 mg/kg, ip. Format: ADME, organism-based.
Data set [18] is described as follows: Tmax in rat brain at 3 mg/kg, ip. It is filed as ADME, organism-based.
Data set [19] addresses T5, Muscarinic acetylcholine receptor M1 (Rattus norvegicus, UniProt P08482).
T5 sequence (P08482 whole entry): T1 sequence (P11229 whole entry) with A5V, T254S, P309S, R320K, A337G, I413V
Description: Inhibition of rat muscarinic acetylcholine M1 receptor expressed in CHO cells co-expressing Gqi5 preincubated with compound followed by acetylcholine addition at EC80 concentration by calcium mobilization assay. It is filed as functional, cell-based.

Data set [20] in a line: Tmax in rat plasma at 3 mg/kg, ip. It is filed as ADME, organism-based.
A short description of data set [21]: Ratio of AUC (0.25 to last) in mouse brain to plasma at 3 mg/kg, ip. The conditions noted are these: read-out: Ratio AUC. It is filed as ADME, organism-based.

As a reminder, the pIC50 is the IC50 on a negative log10 scale, so that one unit is a factor of ten. Usually AUC stands for the area under the concentration-time curve, a measure of exposure. The Cmax is the highest concentration seen after dosing. A word on the pKi: it is −log10 of the Ki, conventionally taken in molar units. As a reminder, the Tmax is the time at which the peak concentration occurs. Usually MRT stands for the average time that molecules of a dose stay in the body. One may read the AUC(0-t) as the area under the concentration-time curve up to a stated or last time point. One may read the clearance as the rate of elimination divided by the concentration.

Residue numbers refer to the chain shown, from its start. pIC50, pKi: −log10 of the molar value.

For the molecule `CC(=O)Nc1ccc(-c2ccc(NC[C@@H]3CC34CCN(CC3CCOCC3)CC4)nn2)cc1`, the pIC50 in data set [1], in data set [5] and in data set [19] was less than 5.00 each time. In addition, the Ratio IC50 in data set [2] was greater than 140. In [3], this molecule registered an AUC of 10500 ng·h/mL. The highest concentration (Cmax) worked out at 6870 ng/mL in data set [4], 477 ng/g in [6], 738 ng/g in [9] and 6700 ng/mL in [10]. The same molecule showed a pKi in data set [7] of 7.36. Besides, in [8], the fCmax was found to be 1656 ng/mL. The Tmax in data set [11] turned out to be 2 h; in data set [17], 0.5 h; in data set [18], 2 h; in data set [20], 0.25 h. Moreover, the Activity in [12] turned out to be 3.2%. This molecule also showed an MRT in data set [13] of 9.33 h. In [14], this molecule gave an exposure AUC(0-t) of 181 ng·h/mL. In addition, the CLint scaled in data set [15] is 6.2 mL/min/kg. The clearance in data set [16] came to 257 mL/min/kg. Further, in data set [21], the Kp is 0.38.
